Source: US11899025B2, “Pharmaceutical composition for preventing or treating neurodegenerative diseases comprising COX2 acetylating agent as active ingredient” (KYUNGPOOK NATIONAL UNIVERSITY INDUSTRY-ACADEMIC COOPERATION …, priority 2018, dated 2024)

Legend:
[1] = system: APP/PS1 neurons; test: neuroinflammatory resolution factor (SPMs) secretion in APP/PS1 neurons after COX2 acetylating agent treatment; assay type: cell-based, mouse; conditions: 10 nM; FIG. 8b
Description: A commercially available ELISA kit (Biosource) was used, and the hemispheres of mice were homogenized and placed in a buffer containing 0.02M guanidine to prepare a sample for Aβ ELISA. In order to measure the neuroinflammatory resolution factor, conditioned media (CM) was prepared after culturing neurons from mouse cerebrum. Thereafter, according to the manufacturer's manual, ELISA for Aβ and SPM was performed.
In order to measure the neuroinflammatory resolution factor, after culturing neurons from mouse cerebrum, CM was prepared by treatment with 10 nM N-acetyl sphingosine 1 phosphate (Toronto Research chemicals, C262710) and N-acetyl sphingosine (Sigma, 01912). For COX2 acetylation analysis, neurons were cultured from mouse cerebrum and then treated with 2 uCi [^14C]N-acetyl sphingosine (ARC, ARC1024). In addition, for in vivo experiments, 7-month-old APP/PS1 mice were injected with 5 mg/kg N-acetyl sphingosine (Sigma, 01912), 1 mg/kg FTY720 and 3 uM S1P daily for 4 weeks via intraperitoneal injection. 1 month-old NPC mice were injected with 5 mg/kg N-acetyl sphingosine (Sigma, 01912) and 2-month-old FUS mice with 30 mg/kg N-acetyl sphingosine (Sigma, 01912) daily for 4 weeks via subcutaneous injection.
First, in order to confirm whether the selected compounds promote the secretion of neuroinflammatory resolution factor in neurons, after treatment with N-acetyl sphingosine 1 phosphate or N-acetyl sphingosine in APP/PS1 neurons, the expression levels of neuroinflammatory resolution factor were confirmed. As a result, it was confirmed that the expression levels of LxA4 and RvE1 in neurons of APP/PS1 mice were recovered when treated with N-acetyl sphingosine 1 phosphate or N-acetyl sphingosine (FIG. 8b).

[2] = target: T1, COX2 (Homo sapiens, UniProt P35354); test: LC-MS/MS identification of the COX2 acetylation site; assay type: biochemical; conditions: FIG. 8d
T1 sequence (P35354 18-604): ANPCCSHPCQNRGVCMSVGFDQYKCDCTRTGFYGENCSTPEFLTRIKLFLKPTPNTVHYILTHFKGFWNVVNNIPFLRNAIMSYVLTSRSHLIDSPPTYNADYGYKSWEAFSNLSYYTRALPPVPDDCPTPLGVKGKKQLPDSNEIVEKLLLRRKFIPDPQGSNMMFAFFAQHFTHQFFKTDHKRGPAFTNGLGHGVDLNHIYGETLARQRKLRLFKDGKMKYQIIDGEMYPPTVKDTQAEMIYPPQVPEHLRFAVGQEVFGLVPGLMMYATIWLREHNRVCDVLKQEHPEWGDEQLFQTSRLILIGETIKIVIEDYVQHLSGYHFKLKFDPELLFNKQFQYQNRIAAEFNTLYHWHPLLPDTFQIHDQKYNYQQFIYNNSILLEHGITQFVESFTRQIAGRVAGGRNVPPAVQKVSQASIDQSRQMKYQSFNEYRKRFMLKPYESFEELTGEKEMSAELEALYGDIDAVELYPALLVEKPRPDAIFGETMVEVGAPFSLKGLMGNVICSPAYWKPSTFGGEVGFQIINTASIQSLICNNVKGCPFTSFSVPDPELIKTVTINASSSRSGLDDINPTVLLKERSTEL
Description: To confirm the acetylation site of COX2, the COX2 enzyme was precipitated with trichroloacetic acid (Merck) and dried. The dried extract was resuspended in 10 μL of 5M urea solution, and 0.1M ammonium bicarbonate buffer was incubated at 37° C. with 1 μg trypsin (Promega) for 16 hours. Then, the sample was treated with 1M DTT (GE Healthcare) at room temperature for 1 hour and then alkylated with 1M iodoacetamide (Sigma) for 1 hour. Protein samples were loaded onto a ZORBAX 300SB-C18 column for sequencing. Peptides were identified with BioTools 3.2 SR5 (Bruker Daltonics).
In addition, it was confirmed that serine 565 (S565) against the COX2 peptide 560-[…]-575 was acetylated in the presence of N-acetyl sphingosine (FIG. 8d).

[3] = system: NP-C mice; test: Niemann-Pick (NP-C) animal model: immunofluorescence, Rota-rod, Beam test; assay type: in vivo, mouse; conditions: 1 month-old NPC mice, 5 mg/kg daily for 4 weeks, subcutaneous
From the text: It has been approved for mouse experiments by the Kyungpook National University Institutional Animal Care and Use Committee (IACUC). A transgenic mouse line overexpressing APPswe (hAPP695swe) or PS1 (presenilin-1M146V) based on C57BL/6 mice (Charles River, UK) was used. [Hereinafter, APP mouse: mouse overexpressing APPswe, PS1 mouse: mouse overexpressing presenilin-1M146V; GlaxoSmithKline]. As an Alzheimer's (AD) animal model, SphK1 tg (SphK1 gene overexpressing mouse) was crossed with APP mice and APP/PS1 mice to prepare APP/PS1/SphK1 tg mice. Niemanpick (NP-C) animal model, Balb/C (Orient, Wild type), NPC mutant mouse lacking NPC1 gene (Provided by Riken, Japan, NP-C mice; less weight than normal mice of the same age, and severe motor function loss from 4 to 6 weeks of age, limb tremors and seizures appear, and lifespan is approximately 9 to 10 weeks. Is) was used. As an animal model for amyotrophic lateral sclerosis (ALS), a transgenic mouse (FUS) line overexpressing RUS R521C based on C57BL/6 mice (Charles River, UK) was used.
After fixing the cerebral and hippocampus of the mouse, anti-20G10 (mouse, 1:1000) against amyloid-β (Aβ) 42 and anti-G30 (rabbit, 1:1000) against Aβ 40, anti-MAP2 (chicken, 1:2000), anti-Synaptophysin (mouse, 1:100), anti-Synapsin1 (rabbit, 1:500), anti-PSD95 (mouse, 1:100), anti-Iba-1 (rabbit, 1:500), Anti-GFAP (rabbit, 1:500) was cultured together. The site was analyzed using a laser scanning confocal microscope or Olympus BX51 microscope equipped with Fluoview SV1000 imaging software (Olympus FV1000, Japan). Metamorph software (Molecular Devices) was used to quantify the percentage of the area of the stained area relative to the area of the total tissue.
To check the motor ability of each experimental group mice, a Rota-rod, Beam test, Tail suspension test, and Hanging wired test were performed. […] The endurance time of the experimental animal was measured in seconds, and the average value was recorded. […] In the Beam test, the time taken to move to the end point after placing the mouse at the start point of a 12 mm wide bar was measured. […]

## CCCCCCCCCCCCC/C=C/[C@@H](O)[C@H](CO)NC(C)=O [N-acetyl sphingosine]
[1]
  expression level of LxA4 in neurons of APP/PS1 mice: recovered
  expression level of RvE1 in neurons of APP/PS1 mice: recovered
[2]
  acetylation of serine 565 (S565) of COX2 peptide 560-GCPFTSFSVPDPELIK-575: acetylated
[3]; FIG. 10a
  microglia (Iba1) in brain cortex vs NP-C mice: remarkable decrease
[3]; FIG. 10b
  astrocytes (GFAP) in brain cortex vs NP-C mice: remarkable decrease
[3]; FIGS. 10c and d
  exercise capacity (Rota-rod, Beam test) vs NP-C mice: improved
